Assay results reported in US8835462B2, “Macrocyclic picolinamides as fungicides” (Dow AgroSciences LLC, priority 2012, dated 2014).
Read-outs that look alike come from different tables or passages of the source.

How the values were obtained:
Format in all cases: in vivo
Cercospora beticola = test: Leaf spot of sugar beets (CERCBE) fungicidal activity; conditions: 24 h, 1 Day Protectant, sugar beet, read-out: Disease Control CERCBE 1DP
Description: Technical grades of materials were dissolved in acetone, which were then mixed with nine volumes of water containing 110 ppm Triton X-100. The fungicide solutions were applied onto wheat seedlings using an automated booth sprayer to run-off. All sprayed plants were allowed to air dry prior to further handling. Wheat plants (variety Yuma) were grown from seed in a greenhouse in 50% mineral soil/50% soil-less Metro mix until the first leaf was fully emerged, with 7-10 seedlings per pot. These plants were inoculated with an aqueous spore suspension of Septoria tritici either prior to or after fungicide treatments. After inoculation the plants were kept in 100% relative humidity (one day in a dark dew chamber followed by two to three days in a lighted dew chamber at 20° C.) to permit spores to germinate and infect the leaf. The plants were then transferred to a greenhouse set at 20° C. for disease to develop. When disease symptoms were fully expressed on the 1st leaves of untreated plants, infection levels were assessed on a scale of 0 to 100 percent disease severity. Percent disease control was calculated using the ratio of disease severity on treated plants relative to untreated plants. Evaluation of Fungicidal Activity: Leaf Spot of Sugar Beets (Cercospora Beticola; Bayer Code CERCBE) Sugar beet plants (variety HH88) were grown in soil-less Metro mix and trimmed regularly to maintain an uniform plant size prior to test. Plants were inoculated with a spore suspension 24 hr after fungicide treatments. Inoculated plants were kept in a dew chamber at 22° C. for 48 hr then incubated in a greenhouse set at 24° C. under a clear plastic hood with bottom ventilation until disease symptoms were fully expressed. Fungicide formulation, application and disease assessment on the sprayed leaves followed the procedures as described in the Example A.

Alternaria solani = test: Tomato early blight (ALTESO) fungicidal activity; conditions: 24 h, 1 Day Protectant, read-out: Disease Control ALTESO 1DP
Description: Technical grades of materials were dissolved in acetone, which were then mixed with nine volumes of water containing 110 ppm Triton X-100. The fungicide solutions were applied onto wheat seedlings using an automated booth sprayer to run-off. All sprayed plants were allowed to air dry prior to further handling. Wheat plants (variety Yuma) were grown from seed in a greenhouse in 50% mineral soil/50% soil-less Metro mix until the first leaf was fully emerged, with 7-10 seedlings per pot. These plants were inoculated with an aqueous spore suspension of Septoria tritici either prior to or after fungicide treatments. After inoculation the plants were kept in 100% relative humidity (one day in a dark dew chamber followed by two to three days in a lighted dew chamber at 20° C.) to permit spores to germinate and infect the leaf. The plants were then transferred to a greenhouse set at 20° C. for disease to develop. When disease symptoms were fully expressed on the 1st leaves of untreated plants, infection levels were assessed on a scale of 0 to 100 percent disease severity. Percent disease control was calculated using the ratio of disease severity on treated plants relative to untreated plants. Evaluation of Fungicidal Activity: Tomato Early Blight (Alternaria Solani; Bayer Code […]) Tomato plants (variety Outdoor girl) were propagated in soil-less Metro mix, with each pot having one plant, and used when 12 to 14 days old. Test plants were inoculated with an aqueous spore suspension of Alternaria solani 24 hr after fungicide treatments. After inoculation the plants were kept in 100% relative humidity (one day in a dark dew chamber followed by two to three days in a lighted dew chamber at 20° C.) to permit spores to germinate and infect the leaf. The plants were then transferred to a growth room at 22° C. for disease to develop. Fungicide formulation, application and disease assessment on the sprayed leaves followed the procedures as described in the Example A.

[1] = test system: Mycosphaerella graminicola; Anamorph: Septoria tritici; test: Leaf blotch of wheat (SEPTTR) fungicidal activity on wheat seedlings; conditions: Zymoseptoria tritici
Description: Evaluation of Fungicidal Activity: Leaf Blotch of Wheat (Mycosphaerella Graminicola; Anamorph: Septoria tritici; Bayer Code […]) Technical grades of materials were dissolved in acetone, which were then mixed with nine volumes of water containing 110 ppm Triton X-100. The fungicide solutions were applied onto wheat seedlings using an automated booth sprayer to run-off. All sprayed plants were allowed to air dry prior to further handling. Wheat plants (variety Yuma) were grown from seed in a greenhouse in 50% mineral soil/50% soil-less Metro mix until the first leaf was fully emerged, with 7-10 seedlings per pot. These plants were inoculated with an aqueous spore suspension of Septoria tritici either prior to or after fungicide treatments. After inoculation the plants were kept in 100% relative humidity (one day in a dark dew chamber followed by two to three days in a lighted dew chamber at 20° C.) to permit spores to germinate and infect the leaf. The plants were then transferred to a greenhouse set at 20° C. for disease to develop. When disease symptoms were fully expressed on the 1st leaves of untreated plants, infection levels were assessed on a scale of 0 to 100 percent disease severity. Percent disease control was calculated using the ratio of disease severity on treated plants relative to untreated plants.

[2] = test system: Glomerella lagenarium; Anamorph: Colletotricum lagenarium; test: Cucumber anthracnose (COLLLA) fungicidal activity; conditions: Colletotrichum orbiculare, 24 h, 1 Day Protectant, read-out: Disease Control COLLLA 1DP
Description: Technical grades of materials were dissolved in acetone, which were then mixed with nine volumes of water containing 110 ppm Triton X-100. The fungicide solutions were applied onto wheat seedlings using an automated booth sprayer to run-off. All sprayed plants were allowed to air dry prior to further handling. Wheat plants (variety Yuma) were grown from seed in a greenhouse in 50% mineral soil/50% soil-less Metro mix until the first leaf was fully emerged, with 7-10 seedlings per pot. These plants were inoculated with an aqueous spore suspension of Septoria tritici either prior to or after fungicide treatments. After inoculation the plants were kept in 100% relative humidity (one day in a dark dew chamber followed by two to three days in a lighted dew chamber at 20° C.) to permit spores to germinate and infect the leaf. The plants were then transferred to a greenhouse set at 20° C. for disease to develop. When disease symptoms were fully expressed on the 1st leaves of untreated plants, infection levels were assessed on a scale of 0 to 100 percent disease severity. Percent disease control was calculated using the ratio of disease severity on treated plants relative to untreated plants. Evaluation of Fungicidal Activity: Cucumber Anthracnose (Glomerella Lagenarium; Anamorph: Colletotricum Lagenarium; Bayer Code COLLLA) Cucumber seedlings (variety Bush Pickle) were propagated in soil-less Metro mix, with each pot having one plant, and used in the test when 12 to 14 days old. Test plants were inoculated with an aqueous spore suspension of Colletotricum lagenarium 24 hr after fungicide treatments. After inoculation the plants were kept in a dew room at 22° C. with 100% relative humidity for 48 hr to permit spores to germinate and infect the leaf. The plants were then transferred to a growth room set at 22° C. for disease to develop. Fungicide formulation, application and disease assessment on the sprayed leaves followed the procedures as described in the Example A.

[3] = test system: Magnaporthe grisea; Anamorph: Pyricularia oryzae; test: whole plant or invertebrate; conditions: 24 h, read-out: Disease Control PYRIOR 1DP
[4] = 24 h, 1 Day Protectant, read-out: Disease Control SEPTTR 1 DP
[5] = 72 h, 3 Day Curative, read-out: Disease Control SEPTTR 3 DC

SMILES	pest or weed control at 100 ppm (Cercospora beticola)	pest or weed control at 100 ppm (Alternaria solani)	pest or weed control at 100 ppm [1, 4]	pest or weed control at 100 ppm [1, 5]	pest or weed control at 100 ppm [2]	pest or weed control at 100 ppm [3]
COc1ccnc(C(=O)N[C@H]2COC[C@H](Cc3ccccc3)[C@@H](OCC(C)C)[C@H](C)OC2=O)c1OC(C)=O [Compound 9, 2-(((3S,7S,8R,9S)-7-benzyl-8-isobutoxy-9-methyl-2-oxo-1,5-dioxonan-3-yl)carbamoyl)-4-methoxypyridin-3-yl acetate]	80 to 100%	80 to 100%	80 to 100%	80 to 100%		
COc1ccnc(C(=O)N[C@H]2COC[C@H](Cc3ccccc3)[C@@H](OC3CCCC3)[C@H](C)OC2=O)c1OCOC(C)=O [Compound 106]	80 to 100%	0 to 80%	80 to 100%	80 to 100%	80 to 100%	
COc1ccnc(C(=O)N[C@H]2COC[C@H](Cc3ccccc3)[C@@H](OC)[C@H](C)OC2=O)c1OCOC(C)=O [Compound 39]	0 to 80%	0 to 80%	80 to 100%	80 to 100%	80 to 100%	80 to 100%
COc1ccnc(C(=O)N[C@H]2COC[C@H](Cc3ccccc3)[C@@H](OCC(C)C)[C@H](C)OC2=O)c1O [Compound 2, N-((3S,7S,8R,9S)-7-benzyl-8-isobutoxy-9-methyl-2-oxo-1,5-dioxonan-3-yl)-3-hydroxy-4-methoxypicolinamide]			80 to 100%	80 to 100%		80 to 100%
COC(=O)/C=C/O[C@@H]1[C@@H](Cc2ccccc2)COC[C@H](NC(=O)c2nccc(OC)c2OCOC(C)=O)C(=O)O[C@H]1C [Compound 36]	0 to 80%	0 to 80%	80 to 100%	80 to 100%	80 to 100%	80 to 100%
COc1ccnc(C(=O)N[C@H]2COC[C@H](Cc3ccccc3)[C@@H](OC3CCCC3)[C@H](C)OC2=O)c1OC(C)=O [Compound 107]	80 to 100%	0 to 80%	80 to 100%	80 to 100%	80 to 100%	80 to 100%
COc1ccnc(C(=O)N[C@H]2COC[C@H](Cc3ccccc3)[C@@H](OCCC(C)OC)[C@H](C)OC2=O)c1OCOC(C)=O (some centres unmarked) [Compound 46]	80 to 100%	0 to 80%	80 to 100%	80 to 100%		80 to 100%
COc1ccnc(C(=O)N[C@H]2COC[C@H](Cc3ccccc3)[C@@H](OC3CCCC3)[C@H](C)OC2=O)c1OCOC(=O)C(C)C [Compound 108]	80 to 100%	80 to 100%	80 to 100%	0 to 80%	80 to 100%	80 to 100%
CCCCCO[C@@H]1[C@@H](Cc2ccccc2)COC[C@H](NC(=O)c2nccc(OC)c2OCOC(C)=O)C(=O)O[C@H]1C [Compound 26]	80 to 100%	80 to 100%	80 to 100%	80 to 100%	80 to 100%	80 to 100%
COc1ccnc(C(=O)N[C@H]2COC[C@H](Cc3ccccc3)[C@@H](OCCCC(F)(F)F)[C@H](C)OC2=O)c1OCOC(C)=O [Compound 23]	80 to 100%	80 to 100%	80 to 100%	80 to 100%	80 to 100%	80 to 100%
COc1ccnc(C(=O)N[C@H]2COC[C@H](Cc3ccccc3)[C@@H](OCC(C)C)[C@H](C)OC2=O)c1OCOC(=O)C(C)(C)C [Compound 7]	80 to 100%	80 to 100%	80 to 100%	80 to 100%		
COc1ccnc(C(=O)N[C@H]2COC[C@H](Cc3ccccc3)[C@@H](Oc3ccccc3)[C@H](C)OC2=O)c1OCOC(C)=O [Compound 40]	80 to 100%	80 to 100%	80 to 100%	80 to 100%	80 to 100%	80 to 100%
COc1ccnc(C(=O)N[C@H]2COC[C@H](Cc3ccccc3)[C@@H](OCC(C)C)[C@H](C)OC2=O)c1OCOC(=O)C(C)C [Compound 3]	80 to 100%	80 to 100%	80 to 100%	80 to 100%	80 to 100%	
COc1ccnc(C(=O)N[C@H]2COC[C@H](Cc3ccccc3)[C@@H](OCC(F)F)[C@H](C)OC2=O)c1OCOC(C)=O [Compound 44]	0 to 80%	0 to 80%	80 to 100%	80 to 100%		80 to 100%
COc1ccnc(C(=O)N[C@H]2COC[C@H](Cc3ccccc3)[C@@H](OCC(C)C)[C@H](C)OC2=O)c1OC(=O)OC(C)C [Compound 10, 2-(((3S,7S,8R,9S)-7-benzyl-8-isobutoxy-9-methyl-2-oxo-1,5-dioxonan-3-yl)carbamoyl)-4-methoxypyridin-3-yl isopropyl carbonate]	80 to 100%	0 to 80%	80 to 100%	80 to 100%		
